Data on six compounds can be found in article PMC7616177, “From structure to clinic: Design of a muscarinic M1 receptor agonist with the potential to treat Alzheimer’s disease” (Cell, 2021).

One experiment has as its target T1, human M1 receptor (Homo sapiens, UniProt P11229).
T1 construct: expressed in transfected cells
T1 sequence (P11229 1-460): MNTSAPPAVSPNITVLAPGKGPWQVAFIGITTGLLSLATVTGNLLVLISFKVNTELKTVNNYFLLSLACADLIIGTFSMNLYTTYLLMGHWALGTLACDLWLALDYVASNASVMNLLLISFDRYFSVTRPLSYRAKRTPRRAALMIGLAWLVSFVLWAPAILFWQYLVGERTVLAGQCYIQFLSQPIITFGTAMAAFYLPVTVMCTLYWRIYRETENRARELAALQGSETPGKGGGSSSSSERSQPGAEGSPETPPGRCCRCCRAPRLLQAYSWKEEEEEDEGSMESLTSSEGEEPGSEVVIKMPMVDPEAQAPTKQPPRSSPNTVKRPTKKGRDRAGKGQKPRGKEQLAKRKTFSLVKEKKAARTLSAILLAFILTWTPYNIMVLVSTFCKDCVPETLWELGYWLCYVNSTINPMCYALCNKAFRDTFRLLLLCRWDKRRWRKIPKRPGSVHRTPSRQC
Put plainly: M1-receptor functional agonist assays (pERK1/2 and calcium mobilisation) for hits and SAR. It counts as cell-based.

In another experiment the target is T2, M3-receptor (Homo sapiens, UniProt P20309).
T2 construct: expressed in transfected cells
T2 sequence (P20309 whole entry): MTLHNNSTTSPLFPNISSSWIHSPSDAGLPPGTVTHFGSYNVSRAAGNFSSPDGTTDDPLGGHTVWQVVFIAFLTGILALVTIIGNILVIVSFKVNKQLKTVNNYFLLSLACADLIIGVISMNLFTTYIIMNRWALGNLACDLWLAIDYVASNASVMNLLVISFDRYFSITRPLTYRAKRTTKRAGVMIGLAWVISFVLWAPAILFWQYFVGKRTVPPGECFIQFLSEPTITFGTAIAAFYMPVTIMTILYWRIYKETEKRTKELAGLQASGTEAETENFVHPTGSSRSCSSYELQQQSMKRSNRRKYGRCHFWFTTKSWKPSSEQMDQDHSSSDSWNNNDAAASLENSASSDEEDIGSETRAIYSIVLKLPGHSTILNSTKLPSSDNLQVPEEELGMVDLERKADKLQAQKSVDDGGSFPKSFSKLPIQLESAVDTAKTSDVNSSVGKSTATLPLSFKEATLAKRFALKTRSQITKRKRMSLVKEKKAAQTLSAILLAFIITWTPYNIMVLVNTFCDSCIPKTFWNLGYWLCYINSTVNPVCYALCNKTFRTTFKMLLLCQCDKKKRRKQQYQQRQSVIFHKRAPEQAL
Put plainly: M3-receptor functional agonist assay. It counts as cell-based. The protocol:
(§1) Functional assays were performed using the Alphascreen Surefire phopho-ERK1/2 assay. […] Once adhered, cells were serum starved overnight. Agonist stimulation was performed by the addition of […] agonist to the cells for a pre-optimized 5 min period (37°C). Media was removed and 50 μl of lysis buffer added. After 15 min a 4 μl sample was transferred to a 384-well plate and 7 μl of detection mixture added.

A further experiment concerns the target T3, M2-receptor (Homo sapiens, UniProt P08172).
T3 sequence (P08172 1-466): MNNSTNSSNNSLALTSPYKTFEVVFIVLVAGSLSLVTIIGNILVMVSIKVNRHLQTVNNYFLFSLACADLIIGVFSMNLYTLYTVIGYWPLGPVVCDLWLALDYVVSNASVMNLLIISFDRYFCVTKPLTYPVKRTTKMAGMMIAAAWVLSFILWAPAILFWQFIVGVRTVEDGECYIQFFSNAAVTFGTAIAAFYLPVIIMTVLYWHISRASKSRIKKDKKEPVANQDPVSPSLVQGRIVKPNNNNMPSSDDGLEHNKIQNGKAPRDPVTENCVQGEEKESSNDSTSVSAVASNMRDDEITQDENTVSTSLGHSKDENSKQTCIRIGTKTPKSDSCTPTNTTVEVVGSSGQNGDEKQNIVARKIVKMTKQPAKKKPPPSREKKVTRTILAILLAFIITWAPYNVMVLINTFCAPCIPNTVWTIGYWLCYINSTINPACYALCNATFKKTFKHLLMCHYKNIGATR
The experiment in a line: M2-receptor functional agonist assay. In kind it is cell-based. Set-up: expressed in transfected cells. As to the method:
as §1

The target in a further experiment is T4, M4-receptor (Homo sapiens, UniProt P08173).
T4 sequence (P08173 1-479): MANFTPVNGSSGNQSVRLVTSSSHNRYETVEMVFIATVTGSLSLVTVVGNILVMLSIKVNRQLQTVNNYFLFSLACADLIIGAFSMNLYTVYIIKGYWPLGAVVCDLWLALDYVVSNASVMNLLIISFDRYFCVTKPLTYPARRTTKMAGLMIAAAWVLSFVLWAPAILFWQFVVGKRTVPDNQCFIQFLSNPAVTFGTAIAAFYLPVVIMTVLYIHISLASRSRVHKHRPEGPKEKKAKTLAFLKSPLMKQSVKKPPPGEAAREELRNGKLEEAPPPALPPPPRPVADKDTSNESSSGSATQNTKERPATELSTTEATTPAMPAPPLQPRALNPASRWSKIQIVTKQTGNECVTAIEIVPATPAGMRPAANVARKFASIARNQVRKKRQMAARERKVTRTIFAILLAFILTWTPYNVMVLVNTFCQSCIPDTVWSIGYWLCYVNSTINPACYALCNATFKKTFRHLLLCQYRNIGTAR
The experiment in a line: M4-receptor functional agonist assay. Set-up: expressed in transfected cells. In kind it is cell-based. The conditions noted are these: for pEC50: read-out: M4-receptor EC50. As to the method:
as §1

The subject of another experiment is Wistar rats. Put plainly: Scopolamine-induced amnesia in passive avoidance. It counts as in vivo, rat. The conditions noted are these: rat passive avoidance, donepezil 0.01 mg/kg. As to the method:
Male adult Wistar rats (Harlan, UK; approximately 11 weeks of age) were acclimatised to the experimental rooms for three days (study days 1-3) and handled for a further two days (study days 4 and 5) prior to the experiment.
Donepezil (0.01 and 0.1 mg/kg) was administered via intraperitoneal injection (in saline) 60 min prior to training. Rats were trained in a single-trial, step-through, light-dark passive avoidance paradigm. The training apparatus consisted of a chamber 300 mm in length, 260 mm wide, and 270 mm in height. The front and top were transparent, allowing the experimenter to observe the behavior of the animal inside the apparatus. The chamber was divided into two compartments, separated by a central shutter that contained a small opening (50 mm wide and 75 mm high) set close to the front of the chamber. The smaller of the compartments measured 90 mm in width and contained a low-light (~200 lux) illumination source. The larger compartment measured 210 mm in width and was not illuminated. The floor of this dark compartment consisted of a grid of 16 horizontal stainless-steel bars that were 5 mm in diameter and spaced 12.5 mm apart. A current generator supplied 0.75 mA to the grid floor, which was scrambled once every 0.5 s across the 16 bars.
Animals were placed facing the rear of the light compartment of the apparatus, immediately after which, spontaneous behavior was assessed. The timer was started once the animal completely turned to face the front of the chamber. Latency to enter the dark chamber was recorded, and having completely entered the dark compartment foot shock was administered to the animal, which immediately returned to the light compartment. Animals were then returned to their home cages. Between each training session, both compartments of the chamber were cleaned to remove any confounding olfactory cues. Vehicle (saline) or scopolamine (1 mg/kg) was administered to rats 6 hours after training. Recall of the inhibitory stimulus was evaluated 24 hour post-training on study day 7, by returning the animal into the light chamber and recording their latency to enter the dark chamber, a criterion time of 600 s was employed. Observation of the animals was made by overhead video camera linked to a monitor behind a screened area. Animal treatment was blinded to the observer.

Where [1] appears, read: SAR, Table S4, read-out: M1-receptor agonist activity EC50.

In general, pEC50 refers to the negative decadic logarithm of the EC50, by convention in mol/L.

pEC50: −log10 of the molar value. Like-named read-outs stand apart in the source and are kept apart here.

As for `CCOC(=O)N1CCC[C@@H](N2CCC(C(=O)NC3(C)CCC3)CC2)CC1` [(R)-Compound 7], the pEC50 on human M1 receptor (setting [1]) is 6.40; at M3-receptor (read-out: M3-receptor EC50) it was less than 4.70; on M2-receptor (read-out: M2-receptor EC50), less than 4.70; on M4-receptor, 5.60.

`CCOC(=O)N1CCC(N2CCC(C(N)=O)CC2)CC1` [Compound 4]: the pEC50 on human M1 receptor (fragment hit, read-out: EC50 at the M1-receptor) is 5.46.

As to `CCOC(=O)N1CCC(N2CCC(C(=O)NCC(C)C)CC2)CC1` [Compound 5], the pEC50 at human M1 receptor (setting [1]) is 6.50. The M2-receptor agonist activity result on M2-receptor is reported as “weak”. The M4-receptor agonist activity entry at M4-receptor was “weak”.

With `CCOC(=O)N1CCCC(N2CCC(C(=O)NCC(C)C)CC2)CC1` (stereo not drawn) [Compound 6], the pEC50 is 7.10 on human M1 receptor (calcium assays, read-out: Potency at the M1-receptor in calcium assays EC50) and 6.10 at M4-receptor. Besides, the M3-receptor agonist activity result on M3-receptor was “no detectable agonist activity”. In addition, the M2-receptor agonist activity result at M2-receptor is on record as “no detectable agonist activity”. Also, the “Lower potency at M4-receptors relative to M1” value on M4-receptor (M4 vs M1) is recorded as “ten-fold”.

As for `Cc1cc(F)c2[nH]c(=O)n(C3CCN(C4CCOCC4)CC3)c2c1` [GSK1034702, reference compound], the M2-receptor agonist activity result on M2-receptor is reported as “significant M2-receptor agonist activity”.

On to `COc1cc2c(cc1OC)C(=O)C(CC1CCN(Cc3ccccc3)CC1)C2` (stereo not drawn) [donepezil, reference compound], for which the Response alone result with Wistar rats is “inactive”.
